Results: patent US20080318970A1, “Treatment of Infectious Diseases” (priority 2004, published 2008)

Experiments:
E. coli, LN 3164 = experiment: Effect of chemosensitising compounds on DR (DR ratio) with ciprofloxacin, microtiter assay; type: cell-based; details: MIC ciprofloxacin alone / MIC ciprofloxacin + chemosensitising compound at ¼ of its MIC; E. coli LN 3164
Description: The effects of the chemosensitising compounds on DR were studied by the microtiter assay described above by exposing cells to 0-64 μg/ml anti-infective drug in the absence or presence of chemosensitising compound. Each experiment was repeated in tripleduplicate. MIC values represent the mean values of two separate experiments.
A log phase culture of bacteria was diluted with fresh pre-warmed medium and adjusted to a defined OD at 600 nm in order to give a final concentration of 1×10^4 bacteria/ml medium in each well. […] Anti-infective agent was added to the bacterial culture in the wells in two-fold dilutions in order to give final concentrations ranging from 0 to 64 μg/ml. Trays were incubated at 37° C. for 16 h. The DR ratio was defined as the ratio between the MIC value for anti-infective agent alone divided by the MIC for the anti-infective agent in the presence of the chemosensitising compound. This ratio represents the increase in apparent potency of the anti-infective agent caused by the chemosensitising compound, and may be expressed as
DR ratio=(MICanti-infective agent)/(MICanti-infective agent+chemosensitising compound)

[1] = system: Fluconazole Resistant Candida albicans; experiment: Checkerboard combination study on fungals, broth microdilution (NCCLS M27-A); type: cell-based; details: for FIC index: fluconazole with trans-clopenthixol
Description: The synergistic effect of Trans-clopenthixol was studied by checkerboard combination studies exposing cells to 0-256 μg/ml anti-infective agent in the absence or presence of trans-clopenthixol (0 to 8 μg/ml in two-fold dilutions). Each experiment was repeated in tripleduplicate. MIC values represent the mean values of two separate experiments.
Clinical Isolate of a Fluconazole Resistant Candida albicans from a Patient with candidemia.
The isolates were subcultured for 24 h on Sabouraud glucose agar before susceptibility testing.
Broth microdilution tests were performed according to NCCLS document M27-A (Ref: National Committee for Clinical Laboratory Standards. (1997). Reference Method for Broth Dilution Antifungal Susceptibility Testing of Yeasts: Approved Standard M27-A. NCCLS, Wayne, Pa.)
Microtitre plates were read spectrophotometrically at 530 nm, after mixing the wells by pipetting to resuspend yeast sediments.
The Fractional Inhibitory Concentration (FIC) was calculated for the anti-infective agent alone and in combination with trans-clopenthixol. The following formulae were used to calculate the FIC index:
(§1) FIC=FICchemosensitising compound+FICanti-infective agent
(§2) FICchemosensitising compound=(MICchemosensitising compound+anti-infective agent)/(MICchemosensitising compound)
FICanti-infective agent=(MICanti-infective agent+chemosensitising compound/(MICanti-infective agent)
(§3) Synergy was defined as a FIC index of <0.5.

S. aureus E45 = experiment: Checkerboard combination study (FIC index); type: cell-based, Staphylococcus aureus; details: isolate resistant (R)
Description: Staphylococcus aureus E45 MRSA. Clinical isolate. Resistant to methicillin. Susceptible to teicoplanin chloramphenicol, fosfomycin, netilmicin and vancomycin.
(§4) The synergistic effect was studied by checkerboard combination studies exposing cells to 0-64 μg/ml anti-infective agent in the absence or presence of trans-flupenthixol, cis-flupenthixol or trans-clopenthixol. Each experiment was repeated in tripleduplicate. MIC values represent the mean values of two separate experiments,
(§5) A log phase culture of bacteria was diluted with fresh pre-warmed medium and adjusted to a defined OD at 600 nm in order to give a final concentration of 1×10^4 bacteria/ml medium in each well. Each chemosensitising compound was added to the bacterial culture in the wells in two-fold dilutions in order to give final concentrations ranging from 0 to 8 μg/ml. Anti-infective agent was added to the bacterial culture in the wells in two-fold dilutions in order to give final concentrations ranging from 0 to 64 μg/ml Trays were incubated at 37° C. for 16 h. Wells were assessed visually for growth. The Fractional Inhibitory Concentration (FIC) was calculated for each anti-infective agent alone and in combination with trans-flupenthixol, cis-flupenthixol or trans-clopenthixol. The following formulae were used to calculate the FIC index:
as §1, §2
(§6) FICanti-infective agent=(MICanti-infective agent+chemosensitising compound/(MICanti-Infective agent)
as §3

E. coli 331ME = experiment: Checkerboard combination study (FIC index); type: cell-based; details: MDR isolate
Description: E. coli 331 ME. In vivo-selected multidrug resistant clinical isolates of E. coli. Strains were isolated from a patient with severe cystitis/urosepsis. Resistant to tetracycline, beta-lactams, fluoroquinolones, chloramphenicol and aminoglycosides.
as §4, §5, §1, §2, §6, §3

E. faecalis F86 = experiment: Checkerboard combination study (FIC index); type: cell-based, Enterococcus faecalis; details: anti-infective agent Dicloxacillin; isolate susceptible (S)
Description: Enterococcus faecalis, F86. Susceptible clinical isolate. No development of resistance.
as §4, §5, §1, §2, §6, §3

E. coli LN 3164 = experiment: Checkerboard combination study (FIC index); type: cell-based; details: MDR isolate
Description: E. coli, LN 3164. Acr AB-ToIC MDR in vitro-selected mutant. Resistant to tetracycline, beta-lactams, fluoroquinolones, chloramphenicol and aminoglycosides.
as §4, §5, §1, §2, §6, §3

S. aureus O11 = type: cell-based
[2] = Pharmacokinetic studies of Trans-clopenthixol with mice, concentrations in sera; type: in vivo, NMRI mice; details: single dose of 0.3 mg per mouse, subcutaneous, 1-24 h (FIG. 4)
Description: Pharmacokinetic studies were done with NMRI mice. Concentrations in sera were determined after the administration of a single dose of 0.3 mg per mouse. The drug was administered by subcutaneous injection in the neck region in a volume of 0.2 ml per dose. At 1, 2, 4, 6, and 24 hours after the injection blood samples were obtained from the mice in groups of three. After collection, the blood was centrifuged and the serum was stored at −80° C. until it was analyzed by High Pressure Liquid Chromatography.

[3] = anti-infective agent Ciprofloxacin
[4] = anti-infective agent Gentamicin
[5] = anti-infective agent Piperacillin

Molecule OCCN1CCN(CC/C=C2\c3ccccc3Sc3ccc(Cl)cc32)CC1 [trans-clopenthixol] has a DR ratio (E. coli, LN 3164) of 128, an MIC ([1]; agent alone) of 32 µg/mL and an FIC index [1] of less than 0.5. It also gave an FIC index ([1]; listed as Trans-clopenthixol) of 0.16, an effective concentrations ([1]; in combination with an anti-fungal agent) of no more than 3 µg/mL and an FIC index (S. aureus E45; anti-infective agent Dicloxacillin) of 0.06. For the same molecule, the FIC index (S. aureus E45; anti-infective agent Fucidic acid) was 0.06, the FIC index (E. coli 331ME; [3]) was 0.003 and the FIC index (E. coli 331ME; [4]) was 0.008. The FIC index (E. coli 331ME; [5]) was 0.063, the FIC index (E. faecalis F86) was 0.25 and the FIC index (E. coli LN 3164; [3]) was 0.063. For the same molecule, the FIC index (E. coli LN 3164; [4]) was 0.063, the FIC index (E. coli LN 3164; [5]) was 0.063 and the “Frequency on emergence of resistance” value (S. aureus O11; 1 μg of ciprofloxacin per ml (two times the MIC) in the presence of inhibitor (1 μg/ml)) was <1 × 10^−10. The “decrease of the frequency of spontaneous emergence of ciprofloxacin resistance” value (S. aureus O11; inhibitor 1 μg/ml) was no less than 100 fold, the “toxic effect of the inhibitor on S. aureus plated in the absence of ciprofloxacin (in words)” value (S. aureus O11; inhibitor 1 μg/ml) was “affected neither the colony-forming ability nor the colony size” and the Serum values [2] was “less than 300 ng/ml”.
